The target in the experiment is T1, Bcl-2 protein (Recombinant Human Bcl-2 Protein) (Homo sapiens, UniProt P10415).
T1 construct: purchased Novus NBP2-34889
Nature of the experiment: Binding evaluation of mixture library compounds to Bcl-2 using AS-MS (affinity selection mass spectrometry). The note with it: AS-MS, mixture of 1200 compounds, Bcl-2, ASMS Ratio(%)=(A−C)/B×100; for ASMS ratio (%) n = 1: replicate n = 1; for ASMS ratio (%) n = 2: replicate n = 2. The essentials:
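Bcl-2 binding is scored from LC/MS signal retained with protein through gel-filtration spin columns, normalised to unfiltered and protein-free controls. Incubation: 20 μM protein, […] per compound, 1 h, 23° C.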

T1 sequence (P10415 whole entry): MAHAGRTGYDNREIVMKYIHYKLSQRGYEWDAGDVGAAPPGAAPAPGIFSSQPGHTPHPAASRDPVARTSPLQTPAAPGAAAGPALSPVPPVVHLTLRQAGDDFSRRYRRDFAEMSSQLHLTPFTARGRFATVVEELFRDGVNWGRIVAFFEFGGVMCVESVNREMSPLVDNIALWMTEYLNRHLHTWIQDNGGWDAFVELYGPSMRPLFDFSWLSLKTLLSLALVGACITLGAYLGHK

As to `CCOc1cncc(-c2cc(CN3CCN(c4ccc(C(=O)NCC56CC7CC(CC(C7)C5)C6)nn4)CC3)cc(C(F)(F)F)c2)c1` [B1A088-01, N-(1-Adamantylmethyl)-6-[4-[[3-(5-ethoxypyridin-3-yl)-5-(trifluoromethyl)phenyl]methyl]piperazin-1-yl]pyridazine-3-carboxamide], the “ASMS ratio (%) n = 1” value is given as 18.7% and the “ASMS ratio (%) n = 2” value is recorded as −7.1%.

As to `CCOc1cccc(-c2cc(CN3CCN(c4ccc(C(=O)NCC56CC7CC(CC(C7)C5)C6)nn4)CC3)cc(OC(F)(F)F)c2)c1` [B1A089-01, N-(1-Adamantylmethyl)-6-[4-[[3-(3-ethoxyphenyl)-5-(trifluoromethoxy)phenyl]methyl]piperazin-1-yl]pyridazine-3-carboxamide], the “ASMS ratio (%) n = 1” value is 0.0%.

As for `CCOc1cncc(-c2cc(CN3CCN(c4ccc(C(=O)NCC56CC7CC(CC(C7)C5)C6)nn4)CC3)cc(OC(F)(F)F)c2)c1` [B1A090-01, N-(1-Adamantylmethyl)-6-[4-[[3-(5-ethoxypyridin-3-yl)-5-(trifluoromethoxy)phenyl]methyl]piperazin-1-yl]pyridazine-3-carboxamide], the “ASMS ratio (%) n = 1” value is 3.3% and the “ASMS ratio (%) n = 2” value was −1.0%.

`CCOc1cccc(-c2ccc(CN3CCN(c4ccc(C(=O)NCC56CC7CC(CC(C7)C5)C6)nn4)CC3)c3ccccc23)c1` [B1A091-01, N-(1-Adamantylmethyl)-6-[4-[[4-(3-ethoxyphenyl)naphthalen-1-yl]methyl]piperazin-1-yl]pyridazine-3-carboxamide]: the “ASMS ratio (%) n = 1” value worked out at 0.0% and the “ASMS ratio (%) n = 2” value worked out at 15.4%.

Turning to `CCOc1cncc(-c2ccc(CN3CCN(c4ccc(C(=O)NCC56CC7CC(CC(C7)C5)C6)nn4)CC3)c3ccccc23)c1` [B1A092-01, N-(1-Adamantylmethyl)-6-[4-[[4-(5-ethoxypyridin-3-yl)naphthalen-1-yl]methyl]piperazin-1-yl]pyridazine-3-carboxamide], the “ASMS ratio (%) n = 1” value was determined as 2.6% and the “ASMS ratio (%) n = 2” value was −2.4%.

As to `CCOc1cccc(-c2csc(CN3CCN(c4ccc(C(=O)NCC56CC7CC(CC(C7)C5)C6)nn4)CC3)c2)c1` [B1A093-01, N-(1-Adamantylmethyl)-6-[4-[[4-(3-ethoxyphenyl)thiophen-2-yl]methyl]piperazin-1-yl]pyridazine-3-carboxamide], the “ASMS ratio (%) n = 1” value is recorded as −5.3% and the “ASMS ratio (%) n = 2” value worked out at 0.0%.

In the case of `CCOc1cncc(-c2csc(CN3CCN(c4ccc(C(=O)NCC56CC7CC(CC(C7)C5)C6)nn4)CC3)c2)c1` [B1A094-01, N-(1-Adamantylmethyl)-6-[4-[[4-(5-ethoxypyridin-3-yl)thiophen-2-yl]methyl]piperazin-1-yl]pyridazine-3-carboxamide], the “ASMS ratio (%) n = 1” value was 6.2% and the “ASMS ratio (%) n = 2” value is −0.7%.

In the case of `CCOc1cccc(C#Cc2ccccc2CN2CCN(c3ccc(C(=O)NCC45CC6CC(CC(C6)C4)C5)nn3)CC2)c1` [B1A095-01, N-(1-Adamantylmethyl)-6-[4-[[2-[2-(3-ethoxyphenyl)ethynyl]phenyl]methyl]piperazin-1-yl]pyridazine-3-carboxamide], the “ASMS ratio (%) n = 1” value was 0.3% and the “ASMS ratio (%) n = 2” value is given as −17.1%.

For the compound `CCOc1cncc(C#Cc2ccccc2CN2CCN(c3ccc(C(=O)NCC45CC6CC(CC(C6)C4)C5)nn3)CC2)c1` [B1A096-01, N-(1-Adamantylmethyl)-6-[4-[[2-[2-(5-ethoxypyridin-3-yl)ethynyl]phenyl]methyl]piperazin-1-yl]pyridazine-3-carboxamide], the “ASMS ratio (%) n = 1” value came to 0.0% and the “ASMS ratio (%) n = 2” value is 7.4%.

Take `CCOc1cccc(-c2ccc(C(C)N3CCN(c4ccc(C(=O)NCC56CC7CC(CC(C7)C5)C6)cc4)CC3)cc2)c1` (stereo not shown) [B1A097-01, N-(1-Adamantylmethyl)-4-[4-[1-[4-(3-ethoxyphenyl)phenyl]ethyl]piperazin-1-yl]benzamide]: the “ASMS ratio (%) n = 1” value came out at 3.2% and the “ASMS ratio (%) n = 2” value is 2.5%.

In the case of `CCOc1cccc(-c2ccc(C(C)N3CCN(c4ccc(C(=O)NCC56CC7CC(CC(C7)C5)C6)cc4)CC3)c(F)c2)c1` (stereo not shown) [B1A099-01, N-(1-Adamantylmethyl)-4-[4-[1-[4-(3-ethoxyphenyl)-2-fluorophenyl]ethyl]piperazin-1-yl]benzamide], the “ASMS ratio (%) n = 1” value is reported as 0.9% and the “ASMS ratio (%) n = 2” value is listed as −0.9%.

As for `CCOc1cncc(-c2ccc(C(C)N3CCN(c4ccc(C(=O)NCC56CC7CC(CC(C7)C5)C6)cc4)CC3)c(F)c2)c1` (stereo not shown) [B1A100-01, N-(1-Adamantylmethyl)-4-[4-[1-[4-(5-ethoxypyridin-3-yl)-2-fluorophenyl]ethyl]piperazin-1-yl]benzamide], the “ASMS ratio (%) n = 1” value was 6.4% and the “ASMS ratio (%) n = 2” value is reported as 2.3%.

For the compound `CCOc1cccc(-c2csc(C(=O)N3CCN(c4ccc(C(=O)NCC(F)(F)F)nn4)CC3)c2)c1` [B1K001-01, 6-[4-[4-(3-Ethoxyphenyl)thiophene-2-carbonyl]piperazin-1-yl]-N-(2,2,2-trifluoroethyl)pyridazine-3-carboxamide], the “ASMS ratio (%) n = 1” value came out at 0.0% and the “ASMS ratio (%) n = 2” value was determined as 0.0%.

Turning to `CCOc1cncc(-c2csc(C(=O)N3CCN(c4ccc(C(=O)NCC(F)(F)F)nn4)CC3)c2)c1` [B1K002-01, 6-[4-[4-(5-Ethoxypyridin-3-yl)thiophene-2-carbonyl]piperazin-1-yl]-N-(2,2,2-trifluoroethyl)pyridazine-3-carboxamide], the “ASMS ratio (%) n = 1” value was found to be 0.0% and the “ASMS ratio (%) n = 2” value amounted to 0.0%.

In the case of `CCOc1cccc(-c2ccc(C(=O)N3CCN(c4ccc(C(=O)NCC(F)(F)F)nn4)CC3)cc2C)c1` [B1K003-01, 6-[4-[4-(3-Ethoxyphenyl)-3-methylbenzoyl]piperazin-1-yl]-N-(2,2,2-trifluoroethyl)pyridazine-3-carboxamide], the “ASMS ratio (%) n = 1” value amounted to 0.1% and the “ASMS ratio (%) n = 2” value is reported as −0.2%.

As for `CCOc1cncc(-c2ccc(C(=O)N3CCN(c4ccc(C(=O)NCC(F)(F)F)nn4)CC3)cc2C)c1` [B1K004-01, 6-[4-[4-(5-Ethoxypyridin-3-yl)-3-methylbenzoyl]piperazin-1-yl]-N-(2,2,2-trifluoroethyl)pyridazine-3-carboxamide], the “ASMS ratio (%) n = 1” value is on record as 0.0% and the “ASMS ratio (%) n = 2” value is listed as 0.6%.

With `CCOc1cccc(-c2ccc(C(=O)N3CCN(c4ccc(C(=O)NCC(F)(F)F)nn4)CC3)cc2F)c1` [B1K005-01, 6-[4-[4-(3-Ethoxyphenyl)-3-fluorobenzoyl]piperazin-1-yl]-N-(2,2,2-trifluoroethyl)pyridazine-3-carboxamide], the “ASMS ratio (%) n = 1” value is reported as −0.1% and the “ASMS ratio (%) n = 2” value was determined as 0.6%.

Regarding `CCOc1cncc(-c2ccc(C(=O)N3CCN(c4ccc(C(=O)NCC(F)(F)F)nn4)CC3)cc2F)c1` [B1K006-01, 6-[4-[4-(5-Ethoxypyridin-3-yl)-3-fluorobenzoyl]piperazin-1-yl]-N-(2,2,2-trifluoroethyl)pyridazine-3-carboxamide], the “ASMS ratio (%) n = 1” value is on record as −0.6% and the “ASMS ratio (%) n = 2” value amounted to 0.0%.

With `CCOc1cccc(C#Cc2ccccc2C(=O)N2CCN(c3ccc(C(=O)NCC(F)(F)F)nn3)CC2)c1` [B1K007-01, 6-[4-[2-[2-(3-Ethoxyphenyl)ethynyl]benzoyl]piperazin-1-yl]-N-(2,2,2-trifluoroethyl)pyridazine-3-carboxamide], the “ASMS ratio (%) n = 1” value is given as 0.0% and the “ASMS ratio (%) n = 2” value turned out to be 1.3%.

As to `CCOc1cncc(C#Cc2ccccc2C(=O)N2CCN(c3ccc(C(=O)NCC(F)(F)F)nn3)CC2)c1` [B1K008-01, 6-[4-[2-[2-(5-Ethoxypyridin-3-yl)ethynyl]benzoyl]piperazin-1-yl]-N-(2,2,2-trifluoroethyl)pyridazine-3-carboxamide], the “ASMS ratio (%) n = 1” value was 0.0% and the “ASMS ratio (%) n = 2” value amounted to 0.0%.

For the compound `CCOc1cncc(C#Cc2cncc(C(=O)N3CCN(c4ccc(C(=O)NCC(F)(F)F)nn4)CC3)c2)c1` [B1K010-01, 6-[4-[5-[2-(5-Ethoxypyridin-3-yl)ethynyl]pyridine-3-carbonyl]piperazin-1-yl]-N-(2,2,2-trifluoroethyl)pyridazine-3-carboxamide], the “ASMS ratio (%) n = 1” value stood at 0.0% and the “ASMS ratio (%) n = 2” value is 0.0%.

In the case of `CCOc1cccc(-c2ccccc2CCC(=O)N2CCN(c3ccc(C(=O)NCC(F)(F)F)nn3)CC2)c1` [B1K011-01, 6-[4-[3-[2-(3-Ethoxyphenyl)phenyl]propanoyl]piperazin-1-yl]-N-(2,2,2-trifluoroethyl)pyridazine-3-carboxamide], the “ASMS ratio (%) n = 1” value is −0.1% and the “ASMS ratio (%) n = 2” value stood at 0.3%.

Regarding `CCOc1cncc(-c2ccccc2CCC(=O)N2CCN(c3ccc(C(=O)NCC(F)(F)F)nn3)CC2)c1` [B1K012-01, 6-[4-[3-[2-(5-Ethoxypyridin-3-yl)phenyl]propanoyl]piperazin-1-yl]-N-(2,2,2-trifluoroethyl)pyridazine-3-carboxamide], the “ASMS ratio (%) n = 1” value turned out to be 0.0% and the “ASMS ratio (%) n = 2” value was −0.4%.

As to `CCOc1cccc(-c2ccc(C(=O)N3CCN(c4ccc(C(=O)NCC(F)(F)F)nn4)CC3)c3ccccc23)c1` [B1K013-01, 6-[4-[4-(3-Ethoxyphenyl)naphthalene-1-carbonyl]piperazin-1-yl]-N-(2,2,2-trifluoroethyl)pyridazine-3-carboxamide], the “ASMS ratio (%) n = 1” value came to 0.0% and the “ASMS ratio (%) n = 2” value is 1.4%.

Consider `CCOc1cncc(-c2ccc(C(=O)N3CCN(c4ccc(C(=O)NCC(F)(F)F)nn4)CC3)c3ccccc23)c1` [B1K014-01, 6-[4-[4-(5-Ethoxypyridin-3-yl)naphthalene-1-carbonyl]piperazin-1-yl]-N-(2,2,2-trifluoroethyl)pyridazine-3-carboxamide], for which the “ASMS ratio (%) n = 1” value was −0.3% and the “ASMS ratio (%) n = 2” value turned out to be 0.0%.

The record behind these values is patent US20240132431A1, “METHOD FOR ALKYLATING ACIDIC FUNCTIONAL GROUP” (Chugai Seiyaku Kabushiki Kaisha, priority 2021, published 2024).
